From ChEMBL document CHEMBL4007488, “Amphiphilic Indole Derivatives as Antimycobacterial Agents: Structure-Activity Relationships and Membrane Targeting Properties” (J Med Chem, 2017)
≈ marks a conversion by molar mass, not a printed value. Calls of active or inactive are those of the source. No cut-off for these calls is given here.

Experiments:
[1] = system: Mycobacterium tuberculosis variant bovis; assay: Antimycobacterial activity against Mycobacterium bovis BCG ATCC 35734 after 5 days by broth dilution method; assay type: functional; conditions: ATCC 35734, 120 h
[2] = system: Mycobacterium tuberculosis variant bovis; assay: Antimycobacterial activity against Mycobacterium bovis BCG ATCC 35734 assessed as increase in permeabilized cells at 1.6 uM measured daily over 5 days of compound treatment by propidium iodide-staining based FACS analysis; assay type: functional, cell-based
[3] = system: Mycobacterium tuberculosis variant bovis; assay: Antimycobacterial activity against Mycobacterium bovis BCG ATCC 35734 assessed as increase in permeabilized cells at 12 uM by propidium iodide-staining based FACS analysis; assay type: functional, cell-based; conditions: TDE = time-dependent effect
[4] = system: Mycobacterium tuberculosis variant bovis; assay: Bactericidal activity against Mycobacterium bovis BCG ATCC 35734 assessed as 1000 fold kill under low-oxygen tension conditions by time kill assay; assay type: functional, Mycobacterium tuberculosis variant bovis BCG
[5] = system: Mycobacterium tuberculosis variant bovis; assay: Bactericidal activity against Mycobacterium bovis BCG ATCC 35734 assessed as reduction in colony forming units at 1.6 uM measured daily over 5 days of compound treatment by time kill assay; assay type: functional
[6] = system: Mycobacterium tuberculosis variant bovis; assay: Antimycobacterial activity against Mycobacterium bovis BCG ATCC 35734 assessed as membrane depolarization at 1.6 uM measured daily over 5 days of compound treatment by DiOC2-based fluorescence assay; assay type: functional
[7] = system: Mycobacterium tuberculosis variant bovis; assay: Antimycobacterial activity against Mycobacterium bovis BCG ATCC 35734 using middlebrook 7H9 broth media supplemented with 10 % fetal bovine serum after 5 days by broth dilution method; assay type: functional; conditions: ATCC 35734, 120 h
[8] = system: Mycobacterium tuberculosis variant bovis; assay: Antimycobacterial activity against Mycobacterium bovis BCG ATCC 35734 assessed as growth inhibition at 10 uM after 5 days relative to control; assay type: functional; conditions: ATCC 35734, 120 h, read-out: GI
[9] = system: Mycobacterium tuberculosis variant bovis; assay: Antimycobacterial activity against Mycobacterium bovis BCG ATCC 35734 using middlebrook 7H9 broth media after 5 days by broth dilution method; assay type: functional; conditions: ATCC 35734, 120 h
[10] = system: Mycobacterium tuberculosis variant bovis; assay: Antimycobacterial activity against Mycobacterium bovis BCG ATCC 35734 in presence of menaquinone; assay type: functional
[11] = system: Mycobacterium tuberculosis variant bovis; assay: Antimycobacterial activity against Mycobacterium bovis BCG ATCC 35734 assessed as membrane depolarization at 12 uM by DiOC2-based fluorescence assay; assay type: functional; conditions: TDE = time-dependent effect
[12] = system: Mycobacterium tuberculosis variant bovis; assay: Antimycobacterial activity against Mycobacterium bovis BCG ATCC 35734 up to 4 times MIC90 after 8 weeks; assay type: functional
[13] = system: Mycobacterium tuberculosis variant bovis; assay: Bactericidal activity against Mycobacterium bovis BCG ATCC 35734 assessed as reduction in colony forming units measured on day 4 by time kill assay; assay type: functional; conditions: ATCC 35734, 96 h, read-out: MBC99.9
[14] = system: Mycobacterium tuberculosis variant bovis; assay: Induction of cell envelope stress in iniBAC expressing Mycobacterium bovis BCG ATCC 35734 co-expressing RFP assessed as increase in iniBAC promoter gene activity at compound MIC50 after 24 hrs by fluorescence assay relative to control; assay type: functional, Mycobacterium tuberculosis variant bovis BCG
[15] = system: Mycobacterium tuberculosis variant bovis; assay: Induction of cell envelope stress in clgR-pspA expressing Mycobacterium bovis BCG ATCC 35734 co-expressing RFP assessed as increase in clgR promoter gene activity at compound MIC50 after 24 hrs by fluorescence assay relative to control; assay type: functional, Mycobacterium tuberculosis variant bovis BCG
[16] = system: Mycobacterium tuberculosis variant bovis; assay: Antimycobacterial activity against Mycobacterium bovis BCG ATCC 35734 assessed as membrane depolarization at 200 uM by DiOC2-based fluorescence assay relative to control; assay type: functional, Mycobacterium tuberculosis variant bovis BCG

CCCCCCCCn1cc(CN2CCCCCC2)c2c(F)cccc21
MIC50 [1]: 2 µM (≈ 0.717 µg/mL)
MIC90 [1]: 6 µM (≈ 2.15 µg/mL)
Activity [2]: Active
Activity [3]: Tde
WCC99.9 [4]: 12 to 24 µM
Activity [5]: Active
Activity [6]: Active
MIC50 [7]: 4.5 µM (≈ 1.61 µg/mL)
inhibition of growth at 10 µM [8]: 99%
MIC50 [9]: 5 µM (≈ 1.79 µg/mL)
Activity [10]: Active
Activity [11]: Tde
Activity [12]: Active
MBC [13]: 12 µM (≈ 4.3 µg/mL)
fold change (FC) [14]: 10
fold change (FC) [15]: 5

NNC(=O)c1ccncc1
Activity [12]: inactive

N#CC(C#N)=NNc1cccc(Cl)c1 [CARBONYL CYANIDE M-CHLOROPHENYLHYDRAZONE]
Activity [16]: 90%

CCCCCCCCn1cc(CN2CCC3(CC2)OCCO3)c2ccc(OC)cc21
MIC50 [1]: 2 µM (≈ 0.829 µg/mL)
MIC90 [1]: 4 µM (≈ 1.66 µg/mL)
MIC50 [7]: 2.5 µM (≈ 1.04 µg/mL)
inhibition of growth at 10 µM [8]: 99%
MIC50 [9]: 2.1 µM (≈ 0.871 µg/mL)

CCCCCCCCn1cc(CN2CCCCCC2)c2c(OC)cccc21
MIC50 [1]: 6 µM (≈ 2.22 µg/mL)
MIC90 [1]: 11 µM (≈ 4.08 µg/mL)
inhibition of growth at 10 µM [8]: 99%

CC(C)=CCC/C(C)=C/Cn1cc(CNC2CCCCCC2)c2cc(F)ccc21
MIC50 [1]: 45 µM (≈ 17.8 µg/mL)
MIC90 [1]: 50 µM (≈ 19.8 µg/mL)
inhibition of growth at 10 µM [8]: 99%

CCCCCCCCn1cc(CN2CCCC2)c2cc(F)ccc21
MIC50 [1]: 10 µM (≈ 3.3 µg/mL)
MIC90 [1]: 24 µM (≈ 7.93 µg/mL)
inhibition of growth at 10 µM [8]: 99%
